Assays:
[1] = biological target: T1, His-TEV-DYRK1A Kinase domain (aa127-485) (Homo sapiens, UniProt Q13627); test: Kinase ADP assay (ADP Hunter), DYRK1A kinase domain; type: biochemical; settings: 20 μM ATP
T1 construct: His-TEV-DYRK1A Kinase domain (aa127-485); His tag (N); TEV protease cleavage site (N)
Method in brief: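 Compounds incubated 10 min at 30 °C with 20 nM enzyme, 40 μM peptide substrate and 20 μM ATP in pH 7.4 Hepes buffer with 10 mM MgCl2. ADP formed detected by ADP Hunter Plus reagents after 20 min at 30 °C, fluorescence read at 590 nm.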

[2] = biological target: T2, DYRK1B (Homo sapiens, UniProt Q9Y463); test: Kinase TR-FRET assay, DYRK1B; type: biochemical; settings: full-length human kinase, 10 μM ATP
T2 construct: full-length human kinases from Carna Biosciences; purchased Carna Biosciences 04-131
T2 sequence (Q9Y463 whole entry): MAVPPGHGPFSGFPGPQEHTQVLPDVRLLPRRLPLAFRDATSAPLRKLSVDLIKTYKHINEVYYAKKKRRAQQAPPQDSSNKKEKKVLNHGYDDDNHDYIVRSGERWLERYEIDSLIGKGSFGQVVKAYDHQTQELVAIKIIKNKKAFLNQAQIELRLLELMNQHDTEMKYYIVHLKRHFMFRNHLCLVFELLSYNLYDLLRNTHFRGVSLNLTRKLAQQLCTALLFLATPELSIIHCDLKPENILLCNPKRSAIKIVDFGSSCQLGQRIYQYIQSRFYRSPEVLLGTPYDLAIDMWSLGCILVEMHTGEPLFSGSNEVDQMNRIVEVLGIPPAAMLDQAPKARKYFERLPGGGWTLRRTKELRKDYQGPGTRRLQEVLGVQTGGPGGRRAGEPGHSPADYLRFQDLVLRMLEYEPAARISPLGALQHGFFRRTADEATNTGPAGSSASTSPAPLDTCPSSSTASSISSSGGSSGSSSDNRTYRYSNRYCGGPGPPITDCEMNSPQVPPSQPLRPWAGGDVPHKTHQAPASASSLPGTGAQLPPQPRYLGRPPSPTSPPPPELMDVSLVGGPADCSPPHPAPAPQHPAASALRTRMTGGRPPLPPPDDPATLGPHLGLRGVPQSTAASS
Method in brief: (§1)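 Compounds tested at 0.1 nM to 30 μM in reaction buffer; reaction stopped with 10 mM EDTA. Phosphorylated MBP detected with 1 nM Europium-labelled anti-phospho-Thr232 antibody by TR-FRET.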

[3] = biological target: T3, CLK1 (Homo sapiens, UniProt P49759); test: Kinase TR-FRET assay, CLK1; type: biochemical; settings: full-length human kinase, 10 μM ATP
T3 construct: full-length human kinases from Carna Biosciences; purchased Carna Biosciences 04-126
T3 sequence (P49759 1-526 isoform P49759-3): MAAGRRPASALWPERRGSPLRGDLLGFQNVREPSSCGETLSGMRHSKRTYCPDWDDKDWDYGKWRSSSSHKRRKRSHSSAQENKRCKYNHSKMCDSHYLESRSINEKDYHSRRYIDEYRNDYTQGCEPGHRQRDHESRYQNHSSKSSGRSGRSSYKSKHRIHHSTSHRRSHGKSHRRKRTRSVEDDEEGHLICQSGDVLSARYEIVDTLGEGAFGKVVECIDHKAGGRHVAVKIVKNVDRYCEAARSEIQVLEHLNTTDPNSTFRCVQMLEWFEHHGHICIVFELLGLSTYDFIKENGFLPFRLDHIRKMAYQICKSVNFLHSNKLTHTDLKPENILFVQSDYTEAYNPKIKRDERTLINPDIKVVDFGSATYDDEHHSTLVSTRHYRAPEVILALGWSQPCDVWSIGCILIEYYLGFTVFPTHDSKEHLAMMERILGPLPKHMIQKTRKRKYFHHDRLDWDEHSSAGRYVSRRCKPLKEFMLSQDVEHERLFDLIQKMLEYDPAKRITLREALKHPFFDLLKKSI
Procedure: Inhibition of the enzymatic activity of human kinases was evaluated in a Time-Resolved Fluorescence Resonance Energy Transfer (TR-FRET) assay in 384-well reaction plates. […] Test compounds of the invention were added in reaction buffer at a range of concentrations from 0.1 nM to 30 μM. Following addition of EDTA (Sigma E7889, 10 mM) to stop the reaction, Europium-labelled mouse monoclonal antibody recognizing phospho-Thr232 in MBP (Perkin Elmer TRF0201, 1 nM) was added.

[4] = biological target: T4, CDK9 (Homo sapiens, UniProt P50750); test: Kinase TR-FRET assay, CDK9; type: biochemical; settings: full-length human kinase, 10 μM ATP
T4 construct: full-length human kinases from Carna Biosciences; purchased Carna Biosciences 04-110
T4 sequence (P50750 whole entry): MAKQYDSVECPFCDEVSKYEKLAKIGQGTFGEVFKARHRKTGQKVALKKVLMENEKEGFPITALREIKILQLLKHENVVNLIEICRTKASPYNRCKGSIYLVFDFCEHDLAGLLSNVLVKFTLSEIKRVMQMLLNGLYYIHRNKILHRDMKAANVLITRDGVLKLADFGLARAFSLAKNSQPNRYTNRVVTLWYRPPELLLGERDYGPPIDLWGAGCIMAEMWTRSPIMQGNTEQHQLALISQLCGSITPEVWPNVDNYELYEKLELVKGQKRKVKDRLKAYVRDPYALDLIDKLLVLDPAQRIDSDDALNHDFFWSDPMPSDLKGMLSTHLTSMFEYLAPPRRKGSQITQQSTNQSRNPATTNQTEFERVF
T4 sequence (O60563 whole entry partner): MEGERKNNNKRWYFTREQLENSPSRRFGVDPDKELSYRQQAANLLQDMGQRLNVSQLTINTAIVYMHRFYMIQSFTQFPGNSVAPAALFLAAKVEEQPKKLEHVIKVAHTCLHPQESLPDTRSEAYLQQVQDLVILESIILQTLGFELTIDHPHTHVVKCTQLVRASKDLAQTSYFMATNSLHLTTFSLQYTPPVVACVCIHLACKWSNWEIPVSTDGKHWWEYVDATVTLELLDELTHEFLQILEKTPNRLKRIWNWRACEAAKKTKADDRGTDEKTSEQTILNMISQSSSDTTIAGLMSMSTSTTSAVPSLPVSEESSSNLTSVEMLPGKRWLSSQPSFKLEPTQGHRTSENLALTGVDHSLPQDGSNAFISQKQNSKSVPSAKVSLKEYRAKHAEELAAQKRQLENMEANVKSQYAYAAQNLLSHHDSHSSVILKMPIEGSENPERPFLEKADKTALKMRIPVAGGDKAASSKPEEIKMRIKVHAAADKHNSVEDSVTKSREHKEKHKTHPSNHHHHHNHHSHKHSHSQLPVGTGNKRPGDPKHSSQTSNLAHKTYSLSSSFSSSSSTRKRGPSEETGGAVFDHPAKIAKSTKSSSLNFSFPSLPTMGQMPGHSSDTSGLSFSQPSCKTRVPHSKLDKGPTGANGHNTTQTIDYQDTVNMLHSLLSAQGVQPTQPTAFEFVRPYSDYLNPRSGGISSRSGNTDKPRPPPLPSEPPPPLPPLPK
Method in brief: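 Full-length human CDK9 (0.9 ng/μl) incubated 100 min at room temperature with 10 μM ATP, 100 nM ULight-MBP peptide and compound (0.1 nM–30 μM) in 50 mM HEPES pH 7.4, 1 mM EGTA, 10 mM MgCl2, 2 mM DTT, 0.01% Tween20. Stopped with 10 mM EDTA, then 1 nM Eu-anti-phospho-Thr232 MBP antibody added for 1 h. TR-FRET read at 665/620 nm with 340 nm excitation.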

[5] = biological target: T5, DYRK1A (Homo sapiens, UniProt Q13627); test: Kinase TR-FRET assay, DYRK1A; type: biochemical; design: full-length, wild-type human DYRK1A (NM_001396) with an HA tag; expressed in transfected cells; host or cells: human U2-OS osteosarcoma cells, transient transfection of a pcDNA3.1 plasmid; settings: full-length human kinase, 10 μM ATP
Method in brief: as §1

[6] = biological target: T5, DYRK1A; test: Cellular DYRK1 autophosphorylation assay in U2-OS cells; type: cell-based; design: full-length, wild-type human DYRK1A (NM_001396) with an HA tag; expressed in transfected cells; host or cells: human U2-OS osteosarcoma cells, transient transfection of a pcDNA3.1 plasmid; settings: U2-OS cells transfected with HA-tagged human DYRK1A, 5 hours exposure; read-out: IC50 (μM) P-Ser520-Dyrk1A -Cell assay
Method in brief: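 U2-OS cells treated with a compound concentration range for 5 h. Phospho-Ser520-DYRK1A measured by western blot densitometry or Mesoscale ELISA. IC50 from dose-response curves; for blots, ratio of phospho-Ser520 to total DYRK1A signal.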

Row | Compound | IC50 [1] | IC50 [2] | IC50 [3] | IC50 [4] | IC50 [5] | IC50 [6]
1 | CCCCCn1c(C)nc2ccc(-c3cc(N)nc(N)c3)nc21 [Example 65, 4-(2-methyl-3-pentyl-3H-imidazo[4,5-b]pyridin-5-yl)pyridine-2,6-diamine] | 0.006 µM | 0.005 µM | 0.018 µM | > 10 µM | 0.001 µM | 0.022 µM
2 | COc1cc(Cn2c(C)nc3ccc(-c4cc(N)nc(N)c4)nc32)ccn1 [Example 72, 4-{3-[(2-methoxypyridin-4-yl)methyl]-2-methyl-3H-imidazo[4,5-b]pyridin-5-yl}pyridine-2,6-diamine] | 0.015 µM | 0.014 µM | 0.09 µM | > 10 µM | 0.01 µM | 0.184 µM
3 | Cc1nc2ccc(-c3cc(N)nc(N)c3)nc2n1CCc1ccc2c(c1)OCO2 [Example 73, 4-(3-[2-(1,3-benzodioxol-5-yl)ethyl]-2-methyl-3H-imidazo[4,5-b]pyridin-5-yl)pyridine-2,6-diamine] | 0.009 µM | 0.008 µM | 0.019 µM | 4.66 µM | 0.004 µM | 0.065 µM
4 | Cc1nc2ccc(-c3cc(N)nc(N)c3)nc2n1CC1CC1(Cl)Cl (stereo not drawn) [Example 74, 4-{3-[(2,2-dichlorocyclopropyl)methyl]-2-methyl-3H-imidazo[4,5-b]pyridin-5-yl}pyridine-2,6-diamine] | 0.014 µM | 0.01 µM | 0.021 µM | 0.476 µM | 0.006 µM | 0.092 µM
5 | Cc1nc2ccc(-c3cc(N)nc(N)c3)nc2n1CCC(C)C [Example 75, 4-[2-methyl-3-(3-methylbutyl)-3H-imidazo[4,5-b]pyridin-5-yl]pyridine-2,6-diamine] | 0.012 µM | 0.006 µM | 0.019 µM | 0.843 µM | 0.003 µM | 0.035 µM
6 | Cc1nc2ccc(-c3cc(N)nc(N)c3)nc2n1CC1CCCC1 [Example 89, 4-[3-(cyclopentylmethyl)-2-methyl-3H-imidazo[4,5-b]pyridin-5-yl]pyridine-2,6-diamine] | 0.014 µM | 0.009 µM | 0.024 µM | 1.46 µM | 0.004 µM | 0.068 µM
7 | Cc1nc2ccc(-c3cc(N)nc(N)c3)nc2n1CCc1cccc(C(F)(F)F)c1 [Example 91, 4-(2-methyl-3-{2-[3-(trifluoromethyl)phenyl]ethyl}-3H-imidazo[4,5-b]pyridin-5-yl)pyridine-2,6-diamine] | 0.013 µM | 0.008 µM | 0.016 µM | 2.92 µM | 0.004 µM | 0.062 µM
8 | Cc1nc2ccc(-c3cc(N)nc(N)c3)nc2n1CCC1CCCC1 [Example 92, 4-[3-(2-cyclopentylethyl)-2-methyl-3H-imidazo[4,5-b]pyridin-5-yl]pyridine-2,6-diamine] | 0.006 µM | 0.007 µM | 0.017 µM | 0.564 µM | 0.002 µM | 0.058 µM
9 | CCCCCCn1c(C)nc2ccc(-c3cc(N)nc(N)c3)nc21 [Example 94, 4-(3-hexyl-2-methyl-3H-imidazo[4,5-b]pyridin-5-yl)pyridine-2,6-diamine] | 0.005 µM | 0.007 µM | 0.016 µM | 1.08 µM | 0.003 µM | 0.017 µM
10 | COC1CCCCC1CCn1c(C)nc2ccc(-c3cc(N)nc(N)c3)nc21 (stereo not drawn) [Example 95, 4-{3-[2-(2-methoxycyclohexyl)ethyl]-2-methyl-3H-imidazo[4,5-b]pyridin-5-yl}pyridine-2,6-diamine] | 0.012 µM | 0.011 µM | 0.029 µM | 1.8 µM | 0.003 µM | 0.021 µM
11 | Cc1nc2ccc(-c3cc(N)nc(N)c3)nc2n1CCc1ccc(F)cc1 [Example 96, 4-{3-[2-(4-fluorophenyl)ethyl]-2-methyl-3H-imidazo[4,5-b]pyridin-5-yl}pyridine-2,6-diamine] | 0.011 µM | 0.01 µM | 0.02 µM | 3.09 µM | 0.004 µM | 0.075 µM
12 | Cc1nc2ccc(-c3cc(N)nc(N)c3)nc2n1CC(F)F [Example 115, 4-[3-(2,2-difluoroethyl)-2-methyl-3H-imidazo[4,5-b]pyridin-5-yl]pyridine-2,6-diamine] | 0.013 µM | 0.006 µM | 0.028 µM | 5.69 µM | 0.003 µM | 0.034 µM
13 | CCCCc1nc2ccc(-c3cc(N)nc(N)c3)nc2n1CCCC [Example 144, 4-(2,3-dibutyl-3H-imidazo[4,5-b]pyridin-5-yl)pyridine-2,6-diamine] | 0.016 µM | 0.012 µM | 0.238 µM | > 3 µM | 0.008 µM | 0.128 µM
14 | CCCCn1c(C)nc2ccc(-c3cc(N)nc(N)c3)nc21 [Example 148, 4-(3-butyl-2-methyl-3H-imidazo[4,5-b]pyridin-5-yl)pyridine-2,6-diamine] | 0.007 µM | 0.006 µM | 0.016 µM | 1.24 µM | 0.002 µM | 0.1 µM
15 | COCCCCn1c(C)nc2ccc(-c3cc(N)nc(N)c3)nc21 [Example 151, 4-[3-(4-methoxybutyl)-2-methyl-3H-imidazo[4,5-b]pyridin-5-yl]pyridine-2,6-diamine] | 0.013 µM | 0.008 µM | 0.019 µM | 2.87 µM | 0.004 µM | 0.17 µM
16 | Cc1nc2ccc(-c3cc(N)nc(N)c3)nc2n1CCOc1ccccc1 [Example 153, 4-[2-methyl-3-(2-phenoxyethyl)-3H-imidazo[4,5-b]pyridin-5-yl]pyridine-2,6-diamine] | 0.01 µM | 0.003 µM | 0.016 µM | 1.02 µM | 0.001 µM | 0.035 µM
17 | CCCCn1c(CC)nc2ccc(-c3cc(N)nc(N)c3)nc21 [Example 157, 4-(3-butyl-2-ethyl-3H-imidazo[4,5-b]pyridin-5-yl)pyridine-2,6-diamine] | 0.021 µM | 0.003 µM | 0.058 µM | > 10 µM | 0.011 µM | 0.153 µM
18 | Cc1nc2ccc(-c3cc(N)nc(N)c3)nc2n1C[C@H](C)Oc1cccc(Br)n1 [Example 180] | 0.013 µM | 0.01 µM | 0.016 µM | 0.467 µM | 0.005 µM | 0.044 µM
19 | Cc1nc2ccc(-c3cc(N)nc(N)c3)nc2n1CCOc1cccc(F)c1 [Example 199, 4-{3-[2-(3-fluorophenoxy)ethyl]-2-methyl-3H-imidazo[4,5-b]pyridin-5-yl}pyridine-2,6-diamine] | 0.012 µM | 0.007 µM | 0.016 µM | 1.1 µM | 0.003 µM | 0.053 µM
20 | Cc1nc2ccc(-c3cc(N)nc(N)c3)nc2n1CCOc1cccc(Cl)c1 [Example 200] | 0.018 µM | 0.01 µM | 0.02 µM | 1.52 µM | 0.005 µM | 0.069 µM
21 | COc1ccccc1OCCn1c(C)nc2ccc(-c3cc(N)nc(N)c3)nc21 [Example 206, 4-{3-[2-(2-methoxyphenoxy)ethyl]-2-methyl-3H-imidazo[4,5-b]pyridin-5-yl}pyridine-2,6-diamine] | 0.017 µM | 0.007 µM | 0.028 µM | > 3 µM | 0.005 µM | 0.094 µM

Source: US20180273528A1 (LES LABORATOIRES SERVIER, priority 2015, published 2018)
